Measured values as given in US11311015B2, “Herbicidal combination” (UPL LIMITED, priority 2018, dated 2022).

Test system: yellow nutsedge
Assay: Field trial, post-emergence control of yellow nutsedge (Blacksburg, Va.)
Assay type: in vivo, Cyperus esculentus
Details: for Yellow nut sedge (Percentage weed cover), 05/07 / Yellow nut sedge (Percentage weed cover), 13/06 / Yellow nut sedge (Percentage weed cover), 20/6 / Yellow nut sedge (Percentage Control), 05/07 / Yellow nut sedge (Percentage Control), 13/06 / Yellow nut sedge (Percentage Control), 20/6: post-emergence field plots, dosage 1X single, 0.5X two-way; for Yellow nut sedge (Percentage weed cover), 05/07: rating date 05/07 (29 DAT), untreated 59; for Yellow nut sedge (Percentage weed cover), 05/07 / Yellow nut sedge (Percentage weed cover), 13/06 / Yellow nut sedge (Percentage weed cover), 20/6 / Yellow nut sedge (Percentage Control), 05/07 / Yellow nut sedge (Percentage Control), 20/6: 0.33X three-way; for Yellow nut sedge (Percentage weed cover), 13/06: rating date 13/06, untreated 50; for Yellow nut sedge (Percentage weed cover), 20/6: rating date 20/6, untreated 49; for Yellow nut sedge (Percentage Control), 05/07: trial initiated June 6, rating date 05/07 (29 DAT); for Yellow nut sedge (Percentage Control), 13/06: trial initiated June 6, rating date 13/06, 0.33X three-way (rates Table 2); for Yellow nut sedge (Percentage Control), 20/6: trial initiated June 6, rating date 20/6; for Burn down / residual control of sedges, result in words: speed of burn down, onset of plant necrosis
Description: An exemplary combination according to the invention was used for sedge and broadleaf weed control for agricultural crops, turf, ornamentals, and landscape. The exemplary combination was used for the post-emergence control of sedges, as well as the control/suppression of various broadleaf and grassy weeds.
A field trial was conducted to evaluate the effectiveness of the combinations of three active ingredients according to the invention when used post emergence, at different rates, compared to industry standards—stand alone and 2 way mixture of compounds for efficacy of yellow nutsedge. The active ingredient combination used in the trial was bentazon+halosulfuron+sulfentrazone. The trial was conducted in Blacksburg, Va. and was initiated on June 6 under Protocol #BRLM-62-US-VA-18-10-BTC. The plots were in fallow area primarily covered with yellow nutsedge and tall fescue, and were sprayed at 4 week intervals. (2 applications total). The application dosages of the herbicides, when used in isolation and when used in the combinations were as follows: […]

Structure (SMILES) | Yellow nut sedge (Percentage weed cover), 05/07 [%] | Yellow nut sedge (Percentage weed cover), 13/06 [%] | Yellow nut sedge (Percentage weed cover), 20/6 [%] | Yellow nut sedge (Percentage Control), 05/07 [%] | Yellow nut sedge (Percentage Control), 13/06 [%] | Yellow nut sedge (Percentage Control), 20/6 [%] | Burn down / residual control of sedges, result in words | Weed control of yellow nutsedge, result in words (post-emergence field trial, compared to individual products and 2 way mixes)
COC(=O)c1c(Cl)nn(C)c1S(=O)(=O)NC(=O)Nc1nc(OC)cc(OC)n1 [Halosulfuron, Halosulfuron-methyl] | 8 | 50 | 16 | 81 | 36 | 60 | delayed response of up to four weeks before plant necrosis began | 
CC(C)N1C(=O)c2ccccc2NS1(=O)=O [Bentazone] | 10 | 40 | 8 | 76 | 65 | 75 | fairly rapid burn down of some of the sedges | did not provide sufficient weed control
Cc1nn(-c2cc(NS(C)(=O)=O)c(Cl)cc2Cl)c(=O)n1C(F)F [Sulfentrazone] | 9 | 44 | 11 | 75 | 58 | 73 | fairly rapid burn down of some of the sedges | 
